Measurements from patent US10144742B2 (Millennium Pharmaceuticals, Inc., priority 2014, dated 2018).
Like-named read-outs stand apart in the source and are kept apart here.

Columns and labels:
PC3 cells = test: PC3 growth inhibition (Cell-titer glo, 72 hours); format: cell-based; conditions: Homo sapiens, PC-3, PC3 cells, 72 hours, Cell-titer glo, read-out: Percent Inhibition (PC3 growth inhibition); for inhibition at 1.667 µM: compound concentration 1.667 μM; for inhibition at 1 µM: compound concentration 1 μM
Outline: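 PC3 cells in RPMI1640 seeded overnight at 37 °C, 5% CO2, then exposed to compound diluted in AIM serum-free medium for 72 h. Viability by CellTiter-Glo luminescence vs DMSO controls; single-concentration % remaining viability (1 μM or 1.667 μM), or GI50/LD50 from curves.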

hNAMPT protein = hNAMPT protein (Homo sapiens (Human), UniProt P43490); test: NAMPT enzyme assay (TR-FRET/HTRF, BodiPY ligand, anti 6His-Tb); format: binding; conditions: for IC50: read-out: IC50; for inhibition at 1 µM: read-out: Percent Inhibition
Outline: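 TR-FRET binding assay in which His-tagged human NAMPT with anti-6His-Tb is displaced by compound from a BodiPY ligand, incubated 1 h at rt in the dark. Excitation was at 320 nm, with the 520/486 nm emission ratio read. IC50 was fitted from inhibition relative to DMSO controls.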

[1] = NAMPT inhibition at compound concentration 1 μM
[2] = NAMPT inhibition, IC50 range class

hNAMPT protein, sequence (P43490 whole entry): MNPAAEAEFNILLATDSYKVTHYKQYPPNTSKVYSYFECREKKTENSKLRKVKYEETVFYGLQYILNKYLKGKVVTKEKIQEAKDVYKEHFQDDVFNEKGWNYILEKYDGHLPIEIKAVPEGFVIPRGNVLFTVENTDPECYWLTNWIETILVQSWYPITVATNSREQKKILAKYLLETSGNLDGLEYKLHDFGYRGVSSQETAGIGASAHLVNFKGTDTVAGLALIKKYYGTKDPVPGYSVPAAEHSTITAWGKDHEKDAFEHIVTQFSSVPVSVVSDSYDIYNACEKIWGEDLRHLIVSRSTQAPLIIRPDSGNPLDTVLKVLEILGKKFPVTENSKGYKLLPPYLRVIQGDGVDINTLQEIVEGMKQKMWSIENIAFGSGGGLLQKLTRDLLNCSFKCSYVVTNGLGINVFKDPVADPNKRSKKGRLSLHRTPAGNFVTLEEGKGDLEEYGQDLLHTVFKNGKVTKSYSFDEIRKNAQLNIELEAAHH

| Compound | inhibition at 1.667 µM (PC3 cells) | IC50 (hNAMPT protein; NAMPT IC50 range class) | inhibition at 1 µM (hNAMPT protein; compound concentration 1 μM) | inhibition at 1 µM (hNAMPT protein; [1]) | IC50 (hNAMPT protein; [2]) | inhibition at 1 µM (PC3 cells) | inhibition at 1 µM (hNAMPT protein) |
| --- | --- | --- | --- | --- | --- | --- | --- |
| O=C(NCCCc1ncc[nH]1)c1ccc2nc(-c3ccc(F)cc3)c(-c3ccccc3F)nc2c1 [Compound I-313, 3-(2-fluorophenyl)-2-(4-fluorophenyl)-N-[3-(1H-imidazol-2-yl)propyl]quinoxaline-6-carboxamide] | 2% | 0.1 to 0.5 µM | 86% |  |  |  |  |
| COc1cc(-c2nc3cc(C(=O)NCc4nc5cnccc5[nH]4)ccc3nc2-c2ccc(F)cc2)c(F)cn1 [Compound I-516, 3-(5-fluoro-2-methoxypyridin-4-yl)-2-(4-fluorophenyl)-N-(1H-imidazo[4,5-c]pyridin-2-ylmethyl)quinoxaline-6-carboxamide] | 1% |  |  | 93% | < 0.1 µM |  |  |
| O=C(NCc1ccc2nccn2c1)c1ccc2nc(-c3ccc(F)cc3)c(-c3ccc(F)cc3)nc2c1 [Compound I-299, 2,3-bis(4-fluorophenyl)-N-(imidazo[1,2-a]pyridin-6-ylmethyl)quinoxaline-6-carboxamide] | 2% | 0.1 to 0.5 µM | 76% |  |  |  |  |
| O=C(NCCCc1ncc[nH]1)c1ccc2nc(OCc3cccc(Cl)c3)c(-c3ccc(F)cc3)nc2c1 [Compound I-498, 2-[(3-chlorobenzyl)oxy]-3-(4-fluorophenyl)-N-[3-(1H-imidazol-2-yl)propyl]quinoxaline-6-carboxamide] | 3% |  |  | 84% | < 0.1 µM |  |  |
| Cc1cc(-c2nc3cc(C(=O)NCCCc4ncc[nH]4)ccc3nc2-c2ccc(F)cc2)c(C)s1 [Compound I-422, 3-(2,5-dimethyl-3-thienyl)-2-(4-fluorophenyl)-N-[3-(1H-imidazol-2-yl)propyl]quinoxaline-6-carboxamide] | 3% |  |  | 92% | < 0.1 µM |  |  |
| COc1ccc(F)c(-c2nc3cc(C(=O)NCCCc4ncc[nH]4)ccc3nc2OC(C)C)c1 [Compound I-492, 3-(2-fluoro-5-methoxyphenyl)-N-[3-(1H-imidazol-2-yl)propyl]-2-isopropoxyquinoxaline-6-carboxamide] | 3% |  |  | 94% | < 0.1 µM |  |  |
| Cc1ccc(-c2nc3cc(C(=O)NCCCc4ncc[nH]4)ccc3nc2-c2ccc(F)cc2)s1 [Compound I-473, 2-(4-fluorophenyl)-N-[3-(1H-imidazol-2-yl)propyl]-3-(5-methyl-2-thienyl)quinoxaline-6-carboxamide] | 3% |  |  | 85% | 0.1 to 0.5 µM |  |  |
| O=C(NCCCn1ccnc1)c1ccc2nc(N3CCC(N4CCNC4=O)CC3)c(-c3ccccc3)nc2c1 [Compound I-272, N-[3-(1H-imidazol-1-yl)propyl]-2-[4-(2-oxoimidazolidin-1-yl)piperidin-1-yl]-3-phenylquinoxaline-6-carboxamide] |  | 0.1 to 0.5 µM | 72% |  |  | -6% |  |
| CC(C)Oc1nc2ccc(C(=O)NCCCc3ncc[nH]3)cc2nc1-c1ccc(F)cc1 [Compound I-253, 3-(4-Fluorophenyl)-N-[3-(1H-imidazol-2-yl)propyl]-2-isopropoxyquinoxaline-6-carboxamide] | 2% | < 0.1 µM |  |  |  |  | 93% |
| O=C(NCCc1ccncc1)c1ccc2nc(-c3ccc(F)cc3)c(-c3ccc(F)cc3)nc2c1 [Compound I-212, 2,3-bis(4-fluorophenyl)-N-[2-(pyridin-4-yl)ethyl]quinoxaline-6-carboxamide] |  | < 0.1 µM | 95% |  |  | 101% |  |
| CC(=O)N1CCN(c2nc3ccc(C(=O)NCCCn4ccnc4)cc3nc2-c2ccccc2)CC1 [Compound I-51, 2-(4-acetylpiperazin-1-yl)-N-[3-(1H-imidazol-1-yl)propyl]-3-phenylquinoxaline-6-carboxamide] |  | 0.1 to 0.5 µM | 81% |  |  | -7% |  |
| O=C(NCCCn1ccnc1)c1ccc2nc(-c3ccccc3)c(-c3cncnc3)nc2c1 [Compound I-41, N-[3-(1H-imidazol-1-yl)propyl]-2-phenyl-3-(pyrimidin-5-yl)quinoxaline-6-carboxamide] |  | 2 to 10 µM | 17% |  |  | 5% |  |
| COC1CN(c2nc3ccc(C(=O)NCCCn4ccnc4)cc3nc2-c2ccccc2)C1 [Compound I-59, N-[3-(1H-imidazol-1-yl)propyl]-2-(3-methoxyazetidin-1-yl)-3-phenylquinoxaline-6-carboxamide] |  | 1 to 2 µM | 49% |  |  | -6% |  |
| O=C(NCCCn1ccnc1)c1ccc2nc(-c3ccccc3)c(N3CCS(=O)(=O)CC3)nc2c1 [Compound I-14, 3-(1,1-dioxidothiomorpholin-4-yl)-N-[3-(1H-imidazol-1-yl)propyl]-2-phenylquinoxaline-6-carboxamide] |  | 2 to 10 µM | 17% |  |  | -3% |  |
| O=C(NCCCc1ncc[nH]1)c1ccc2nc(-n3cccn3)c(-c3ccc(F)cc3)nc2c1 [Compound I-434, 3-(4-fluorophenyl)-N-[3-(1H-imidazol-2-yl)propyl]-2-(1H-pyrazol-1-yl)quinoxaline-6-carboxamide] | 3% |  |  | 76% | 0.1 to 0.5 µM |  |  |
| N#Cc1cccc(-c2nc3ccc(C(=O)NCCCn4ccnc4)cc3nc2-c2ccccc2)c1 [Compound I-219, 2-(3-cyanophenyl)-N-[3-(1H-imidazol-1-yl)propyl]-3-phenylquinoxaline-6-carboxamide] |  | 0.1 to 0.5 µM | 74% |  |  | -7% |  |
| O=C(NCCCn1ccnc1)c1ccc2nc(-c3ccccc3)c(-c3cccc(Cl)c3)nc2c1 [Compound I-224, 3-(3-chlorophenyl)-N-[3-(1H-imidazol-1-yl)propyl]-2-phenylquinoxaline-6-carboxamide] |  | 0.1 to 0.5 µM | 74% |  |  | 1% |  |
| O=C(NCCCc1ncc[nH]1)c1ccc2nc(C3=CCC(O)CC3)c(-c3cccs3)nc2c1 (stereo not drawn) [Compound I-202, 2-(4-Hydroxycyclohex-1-en-1-yl)-N-[3-(1H-imidazol-2-yl)propyl]-3-(2-thienyl)quinoxaline-6-carboxamide] | 2% | < 0.1 µM | > 99% |  |  |  |  |
| COc1cccc(-c2nc3cc(C(=O)NCCc4cccnc4)ccc3nc2N2CCC(O)CC2)c1 [Compound I-67, 2-(4-hydroxypiperidin-1-yl)-3-(3-methoxyphenyl)-N-[2-(pyridin-3-yl)ethyl]quinoxaline-6-carboxamide] | 2% | < 0.1 µM | 96% |  |  |  |  |
| O=C(NCCCc1ncc[nH]1)c1ccc2nc(C3CCOCC3)c(-c3ccc(F)cc3)nc2c1 [Compound I-366, 3-(4-fluorophenyl)-N-[3-(1H-imidazol-2-yl)propyl]-2-(tetrahydro-2H-pyran-4-yl)quinoxaline-6-carboxamide] | 1% | 0.5 to 1 µM | 53% |  |  |  |  |
| O=C(NCc1ccc2nccn2c1)c1ccc2nc(N3CCOCC3)c(-c3ccc(F)cc3)nc2c1 [Compound I-147, 3-(4-fluorophenyl)-N-(imidazo[1,2-a]pyridin-6-ylmethyl)-2-(morpholin-4-yl)quinoxaline-6-carboxamide] | 2% | < 0.1 µM | 95% |  |  |  |  |
| Cc1c(F)cc(-c2nc3cc(C(=O)NCCCc4ncc[nH]4)ccc3nc2-c2ccc(F)cc2)cc1F [Compound I-306, 3-(3,5-difluoro-4-methylphenyl)-2-(4-fluorophenyl)-N-[3-(1H-imidazol-2-yl)propyl]quinoxaline-6-carboxamide] | 3% | 0.5 to 1 µM | 60% |  |  |  |  |
| O=C(NCCc1cccnc1)c1ccc2nc(-c3ccco3)c(-c3ccco3)nc2c1 [Compound I-117, 2,3-di(2-furyl)-N-[2-(pyridin-3-yl)ethyl]quinoxaline-6-carboxamide] |  | 2 to 10 µM | 22% |  |  | 97% |  |
| COc1cc(F)cc(-c2nc3cc(C(=O)NCCCc4ncc[nH]4)ccc3nc2-c2ccc(F)cc2)c1 [Compound I-512, 3-(3-fluoro-5-methoxyphenyl)-2-(4-fluorophenyl)-N-[3-(1H-imidazol-2-yl)propyl]quinoxaline-6-carboxamide] | 2% |  |  | 92% | < 0.1 µM |  |  |
| O=C(NCCc1ncc[nH]1)c1ccc2nc(-c3ccc(F)cc3)c(-c3ccc(F)cc3)nc2c1 [Compound I-122, 2,3-Bis(4-fluorophenyl)-N-[2-(1H-imidazol-2-yl)ethyl]quinoxaline-6-carboxamide] | 4% | 2 to 10 µM | 60% |  |  |  |  |
| N#CC1(COc2nc3ccc(C(=O)NCCCc4ncc[nH]4)cc3nc2-c2ccc(F)cc2)CCC1 [Compound I-407, 2-[(1-cyanocyclobutyl)methoxy]-3-(4-fluorophenyl)-N-[3-(1H-imidazol-2-yl)propyl]quinoxaline-6-carboxamide] | 2% |  |  | > 99% | < 0.1 µM |  |  |
| O=C(NCCCc1ncc[nH]1)c1ccc2nc(N3CCCC3)c(-c3ccc(Cl)cc3)nc2c1 [Compound I-116, 3-(4-chlorophenyl)-N-[3-(1H-imidazol-2-yl)propyl]-2-(pyrrolidin-1-yl)quinoxaline-6-carboxamide] | 2% | < 0.1 µM | 98% |  |  |  |  |
